Results as given in patent US6479435B1, “Diaryl ethers and processes for their preparation and herbicidal and desiccant compositions containing them” (ISK Americas Incorporated, priority 1997, dated 2002).

Legend:
Type in all cases: in vivo
[1] = test system: common ragweed (Ambrosia artemisiifolia L., AMBEL); assay: Post-emerge greenhouse herbicide test, phytotoxicity rating; details: 14 days after application
From the text: A standard greenhouse herbicide activity screening system was used to evaluate the herbicidal efficacy and crop safety of these test compounds. Six broadleaf weed species including redroot pigweed (Amaranthus retroflexus, AMARE), velvetleaf (Abutilon theophrasti, ABUTH), sicklepod (Cassia obtusifolia, CASOB), ivyleaf morningglory (Ipomoea hederacea, IPOHE), lambsquarters (Chenopodium album, CHEAL) and common ragweed (Ambrosia artemisiifolia L., AMBEL) were used as test species. Four grass weed species including green foxtail (Setaria viridis, SETVI), barnyardgrass (Echinochloa crusgalli, ECHCG), Johnsongrass (Sorghum halepense, SORHA), and large crabgrass (Digitaria sanguinalis, DIGSA) were also used. In addition, three crop species, field corn (Zea mays L., var. Dekalb 535, CORN), soybean (Glycine max L., var. Pella 86, SOY), and upland rice (Oryza sp., var.Tebonnet, RICE) were included.
All test compounds were dissolved in acetone and applied to the test units in a volume of 187 l/ha. […] Plants were arranged on a shelf so that the top of the canopy (post-emerge) or top of the soil surface (pre-emerge) was 40-45 cm below the nozzle. Pressurized air was used to force the test solution through the nozzle as it was mechanically advanced (via electrically driven chain drive) over the top of all test plants/pots. This application simulates a typical commercial field herbicide application.
In the post-emerge test, a commercial non-ionic surfactant was also included (0.25% v/v) to enhance wetting of the leaf surfaces Qf target plants at rates ranging from 63 g ai/ha to 1000 g ai/ha. For post-emerge tests, seeds were planted 8-21 days prior to the test to allow emergence and good foliage development prior to application of the test substances. At the time of the post-emerge application, plants of all species were usually at the 2-3 leaf stage of development. Post-emerge test units were always bottom-watered.
At 14 days after application of the test materials, phytotoxicity ratings were recorded. A rating scale of 0-100 was used as previously described in Research Methods in Weed Science, 2nd edition, B. Truelove, Ed., Southern Weed Science Society, Auburn University, Auburn, Ala., 1977. Briefly, “0” corresponds to no damage and “100” corresponds to complete death of all plants in the test unit. This scale was used both to determine efficacy against weed species and damage to crop species. Herbicide activity data for various compounds of this invention, which are shown by compound number in Tables 1-9, are shown in Tables 13 and 14.

[2] = test system: Johnsongrass (Sorghum halepense, SORHA); assay: as above; details: 14 days after application
In short: (§1)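 Scores use a 0 (no damage) to 100 (complete kill) scale, taken 14 days after a foliar spray. Acetone solutions with 0.25% v/v non-ionic surfactant were applied by track sprayer at 187 l/ha and 63-1000 g ai/ha to bottom-watered 2-3 leaf plants.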

[3] = test system: lambsquarters (Chenopodium album, CHEAL); assay: as above; details: 14 days after application
In short: as §1

[4] = test system: sicklepod (Cassia obtusifolia, CASOB); assay: as above; details: 14 days after application
In short: as §1

[5] = test system: velvetleaf (Abutilon theophrasti, ABUTH); assay: as above; details: 14 days after application
In short: as §1

[6] = test system: ivyleaf morningglory (Ipomoea hederacea, IPOHE); assay: as above; details: 14 days after application
In short: as §1

[7] = test system: barnyardgrass (Echinochloa crusgalli, ECHCG); assay: as above; details: 14 days after application
In short: as §1

[8] = test system: large crabgrass (Digitaria sanguinalis, DIGSA); assay: as above; details: 14 days after application
In short: as §1

[9] = test system: redroot pigweed (Amaranthus retroflexus, AMARE); assay: as above; details: 14 days after application
In short: as §1

[10] = test system: green foxtail (Setaria viridis, SETVI); assay: as above; details: 14 days after application
In short: as §1

[11] = test system: Johnsongrass (Sorghum halepense, SORHA); assay: Pre-emerge greenhouse herbicide test, phytotoxicity rating; details: 14 days after application, rating scale 0-100
In short: (§2)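 Visual 0–100 injury rating (100 = all plants dead) taken 14 days after treatment. Rates of 125–1000 g ai/ha in acetone, 187 l/ha, were sprayed onto soil one day post-sowing; pots were surface-watered to incorporate, then bottom-watered.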

[12] = test system: lambsquarters (Chenopodium album, CHEAL); assay: as above; details: 14 days after application, rating scale 0-100
In short: as §2

[13] = test system: sicklepod (Cassia obtusifolia, CASOB); assay: as above; details: 14 days after application, rating scale 0-100
In short: as §2

[14] = test system: velvetleaf (Abutilon theophrasti, ABUTH); assay: as above; details: 14 days after application, rating scale 0-100
In short: as §2

[15] = test system: ivyleaf morningglory (Ipomoea hederacea, IPOHE); assay: as above; details: 14 days after application, rating scale 0-100
In short: as §2

[16] = test system: barnyardgrass (Echinochloa crusgalli, ECHCG); assay: as above; details: 14 days after application, rating scale 0-100
In short: as §2

[17] = test system: large crabgrass (Digitaria sanguinalis, DIGSA); assay: as above; details: 14 days after application, rating scale 0-100
In short: as §2

[18] = test system: common ragweed (Ambrosia artemisiifolia L., AMBEL); assay: as above; details: 14 days after application, rating scale 0-100
In short: as §2

[19] = test system: redroot pigweed (Amaranthus retroflexus, AMARE); assay: as above; details: 14 days after application, rating scale 0-100
In short: as §2

[20] = test system: green foxtail (Setaria viridis, SETVI); assay: as above; details: 14 days after application, rating scale 0-100
In short: as §2

For `COc1nc(OC)nc(Oc2cc(-c3nn(C)c(C(F)(F)F)c3Cl)c(F)cc2Cl)n1` [Compound 1-8, 4-chloro-3-(4-chloro-2-fluoro-5-(4,6-dimethoxy-2-triazinyloxy)phenyl)-1-methyl-5-trifluoromethyl-1H-pyrazole], the “AMBEL phytotoxicity rating (0-100)” value ([1]; 63 g al/ha) was 0, the “AMBEL phytotoxicity rating (0-100)” value ([1]; 500 g al/ha) was 10 and the “SORHA phytotoxicity rating (0-100)” value ([2]; 63 g al/ha) was 0. For the same molecule, the “SORHA phytotoxicity rating (0-100)” value ([2]; 500 g al/ha) was 10, the “CHEAL phytotoxicity rating (0-100)” value ([3]; 63 g al/ha) was 0 and the “CHEAL phytotoxicity rating (0-100)” value ([3]; 500 g al/ha) was 95. For the same molecule, the “CASOB phytotoxicity rating (0-100)” value ([4]; 63 g al/ha) was 0, the “CASOB phytotoxicity rating (0-100)” value ([4]; 500 g al/ha) was 10 and the “ABUTH phytotoxicity rating (0-100)” value ([5]; 63 g al/ha) was 0. For the same molecule, the “ABUTH phytotoxicity rating (0-100)” value ([5]; 500 g al/ha) was 35, the “IPOHE phytotoxicity rating (0-100)” value ([6]; 63 g al/ha) was 10 and the “IPOHE phytotoxicity rating (0-100)” value ([6]; 500 g al/ha) was 80. For the same molecule, the “ECHCG phytotoxicity rating (0-100)” value ([7]; 63 g al/ha) was 0, the “ECHCG phytotoxicity rating (0-100)” value ([7]; 500 g al/ha) was 0 and the “DIGSA phytotoxicity rating (0-100)” value ([8]; 63 g al/ha) was 0. The “DIGSA phytotoxicity rating (0-100)” value ([8]; 500 g al/ha) was 20, the “AMARE phytotoxicity rating (0-100)” value ([9]; 63 g al/ha) was 20 and the “AMARE phytotoxicity rating (0-100)” value ([9]; 500 g al/ha) was 100. For the same molecule, the “SETVI phytotoxicity rating (0-100)” value ([10]; 63 g al/ha) was 50, the “SETVI phytotoxicity rating (0-100)” value ([10]; 500 g al/ha) was 20 and the “phytotoxicity rating SORHA” value ([11]; 125 g ai/ha) was 0. For the same molecule, the “phytotoxicity rating SORHA” value ([11]; 500 g ai/ha) was 35, the “phytotoxicity rating CHEAL” value ([12]; 125 g ai/ha) was 0 and the “phytotoxicity rating CHEAL” value ([12]; 500 g ai/ha) was 100. For the same molecule, the “phytotoxicity rating CASOB” value ([13]; 125 g ai/ha) was 0, the “phytotoxicity rating CASOB” value ([13]; 500 g ai/ha) was 0 and the “phytotoxicity rating ABUTH” value ([14]; 125 g ai/ha) was 0. The “phytotoxicity rating ABUTH” value ([14]; 500 g ai/ha) was 20, the “phytotoxicity rating IPOHE” value ([15]; 125 g ai/ha) was 0 and the “phytotoxicity rating IPOHE” value ([15]; 500 g ai/ha) was 0. The “phytotoxicity rating ECHCG” value ([16]; 125 g ai/ha) was 0, the “phytotoxicity rating ECHCG” value ([16]; 500 g ai/ha) was 0 and the “phytotoxicity rating DIGSA” value ([17]; 125 g ai/ha) was 20. The “phytotoxicity rating DIGSA” value ([17]; 500 g ai/ha) was 90, the “phytotoxicity rating AMBEL” value ([18]; 125 g ai/ha) was 0 and the “phytotoxicity rating AMBEL” value ([18]; 500 g ai/ha) was 10. The “phytotoxicity rating AMARE” value ([19]; 125 g ai/ha) was 70, the “phytotoxicity rating AMARE” value ([19]; 500 g ai/ha) was 100 and the “phytotoxicity rating SETVI” value ([20]; 125 g ai/ha) was 50. The “phytotoxicity rating SETVI” value ([20]; 500 g ai/ha) was 100.
